Assay results reported in ChEMBL document CHEMBL3046964, “Synthesis of novel building blocks of 1H-pyrrolo[3,4-b]quinolin-3(2H)-one and evaluation of their antitumor activity” (Med Chem Res, 2013).

Columns and labels:
[1] = test system: SK-N-SH; assay: Cytotoxicity against Homo sapiens (human) SK-N-SH cells assessed as growth inhibition after 48 hr by MTT assay; type: functional, cell-based
[2] = test system: A549; assay: Cytotoxicity against Homo sapiens (human) A549 cells assessed as growth inhibition after 48 hr by MTT assay; type: functional, cell-based; settings: A549, 48 h

Compound	IC50 [1] [µM]	IC50 [2] [µM]
O=C(O)Cc1ccc(/C=C/CN2Cc3cc4ccccc4nc3C2=O)cc1	56.6	
O=C(Cc1ccc(/C=C/CN2Cc3cc4ccccc4nc3C2=O)cc1)N1CCN(c2ccccc2)CC1	51.9	53.5
COc1ccc(N2CCN(C(=O)Cc3ccc(/C=C/CN4Cc5cc6ccccc6nc5C4=O)cc3)CC2)cc1	56.3	
O=C(Cc1ccc(/C=C/CN2Cc3cc4ccccc4nc3C2=O)cc1)N1CCN(c2ccc([N+](=O)[O-])cc2)CC1	56.2	43.8
O=C(Cc1ccc(/C=C/CN2Cc3cc4ccccc4nc3C2=O)cc1)N1CCOCC1	8.62	46.2
O=C(Cc1ccc(/C=C/CN2Cc3cc4ccccc4nc3C2=O)cc1)N1CCCC1	57.2	
O=C(Cc1ccc(/C=C/CN2Cc3cc4ccccc4nc3C2=O)cc1)N1CCCCC1	38.3	67.8
CC(C)N(C(=O)Cc1ccc(/C=C/CN2Cc3cc4ccccc4nc3C2=O)cc1)C(C)C	43.2	70.1
O=C(Cc1ccc(/C=C/CN2Cc3cc4ccccc4nc3C2=O)cc1)NCCO	42.1	
O=C(Cc1ccc(CCCN2Cc3cc4ccccc4nc3C2=O)cc1)N1CCN(c2ccccc2)CC1	42	65.4
COc1ccc(N2CCN(C(=O)Cc3ccc(CCCN4Cc5cc6ccccc6nc5C4=O)cc3)CC2)cc1	48.9	68.8
O=C(Cc1ccc(CCCN2Cc3cc4ccccc4nc3C2=O)cc1)N1CCN(c2ccc([N+](=O)[O-])cc2)CC1	40.2	
COc1cccc2c1C(=O)c1c(O)c3c(c(O)c1C2=O)C[C@@](O)(C(=O)CO)C[C@@H]3O[C@H]1C[C@H](N)[C@H](O)[C@H](C)O1 [DOXORUBICIN]		24.3
O=c1c2ccccc2nc2n1Cc1cc3ccccc3nc1-2 [LUOTONIN A]	61.1	61.2
